Laboratory results reported in patent publication US20240408093A1, “HETEROBIFUNCTIONAL COMPOUNDS AND THEIR USE IN TREATING DISEASE” (HALDA THERAPEUTICS OPCO, INC., priority 2022, published 2024).

Columns and labels:
[1] = target: T1, EGFR WT (amino acids 669-1011) (Homo sapiens, UniProt P00533); assay: KdELECT binding assay, EGFR WT
T1 construct: purchased Eurofins Discovery (KdELECT); host or cells: bacteria (E. coli BL21-derived, T7 phage)
Experimental: Exemplary compounds were tested for ability to bind to EGFR WT (amino acids 669-1011, Accession Number NP_005219.2) or EGFR T790M, L858R (amino acids 669-1011 Accession Number NP_005219.2) expressed from bacteria or mammalian cells, respectively. Compounds were tested using the KdELECT assay at Eurofins Discovery.
Kinase-tagged T7 phage strains were prepared in an E. coli host derived from the BL21 strain. E. coli were grown to log-phase and infected with T7 phage and incubated with shaking at 32° C. until lysis. The lysates were centrifuged and filtered to remove cell debris. The remaining kinases were produced in HEK-293 cells and subsequently tagged with DNA for qPCR detection. Streptavidin-coated magnetic beads were treated with biotinylated small molecule ligands for 30 minutes at room temperature to generate affinity resins for kinase assays. The liganded beads were blocked with excess biotin and washed with blocking buffer (SeaBlock (Pierce), 1% BSA, 0.05% Tween 20, 1 mM DTT) to remove unbound ligand and to reduce non-specific binding. Binding reactions were assembled by combining kinases, liganded affinity beads, and test compounds in 1x binding buffer (20% SeaBlock, 0.17× PBS, 0.05% Tween 20, 6 mM DTT). Test compounds were prepared as 111× stocks in 100% DMSO. Kd values were determined using an 11-point 3-fold compound dilution series with three DMSO control points. All compounds for Kd measurements are distributed by acoustic transfer (non-contact dispensing) in 100% DMSO. The compounds were then diluted directly into the assays such that the final concentration of DMSO was 0.9%. All reactions performed in polypropylene 384-well plate. Each was a final volume of 0.02 mL. The assay plates were incubated at room temperature with shaking for 1 hour and the affinity beads were washed with wash buffer (1× PBS, 0.05% Tween 20). The beads were then re-suspended in elution buffer (1× PBS, 0.05% Tween 20, 0.5 μM nonbiotinylated affinity ligand) and incubated at room temperature with shaking for 30 minutes. The kinase concentration in the eluates was measured by qPCR.

KRAS G12C [2] = target: T2, KRAS G12C (Homo sapiens, UniProt P01116, G12C); assay: KRAS G12C cellular target engagement assay (SW1573 cells); format: cell-based; design: host or cells: SW1573; settings: 17 hours, read-out: TE50 (the source's name)
Experimental: SW1573 cells (ATCC CRL-2170) were cultured in RPMI 1640 (Gibco A1049101), supplemented with 10% Heat-inactivated FBS (Gibco Cat. #A38400-01) and 1% Penicillin/Streptomycin (Gibco Cat. #15140-122) in an incubator set at 37° C. and 5% CO2. Cells were seeded at 100,000 cells/ml in 1 ml of complete media in a 24-well, tissue culture-treated plate (Falcon 353226) and incubated overnight. Cells were treated with increasing concentrations of compound and let incubate at 37C and 5% CO2 for 17 hours, after which media was aspirated and cells were lysed in 75 uL RIPA Lysis and Extraction Buffer (Thermo 89901) supplemented with 5 mM MgCl2, Protease and Phosphatase inhibitor cocktail (Thermo 1861281), and Universal Nuclease (Thermo 88700). Plates with RIPA were shaken at 4° C. at 600 rpm for 15 min. After shaking samples, they were collected and spun down at 21,000 g for 15 min at 4° C. Following centrifugation, ˜10 ug of lysate was added to Laemmli Sample Buffer (Bio-Rad 1610747) plus 10% beta-mercaptoethanol, boiled for 15 minutes at 65° C. and loaded onto 12% Mini-PROTEAN TGX™ Precast Protein Gels (Bio-Rad). Protein was transferred to a nitrocellulose membrane (Thermo LC2000) using the iBlot 2 Dry Blotting System (Thermo). After transfer, membranes were washed in 1× TBST (Bioland Scientific LLC TBST0103) 3× for 5 min. Following the wash, blocking buffer (Rockland MB-070) was added for 1 hour at room temperature. Primary antibodies against KRAS (LifeSpan Bio LS-C175665) and actin (Cell Signaling Technology 8457) were added overnight at 4° C. Membranes were then washed again 3× for 5 min in 1× TBST. Secondary antibodies (LI-COR 926-68072 and 926-68073) were added and shaken for 1 hr at room temperature. Membranes were then washed 3× for 5 min in 1×TBST and developed. Membranes were placed on an Odyssey imager (LI-COR).
Target sequence in this assay (P01116 1-188 isoform P01116-2 G12C): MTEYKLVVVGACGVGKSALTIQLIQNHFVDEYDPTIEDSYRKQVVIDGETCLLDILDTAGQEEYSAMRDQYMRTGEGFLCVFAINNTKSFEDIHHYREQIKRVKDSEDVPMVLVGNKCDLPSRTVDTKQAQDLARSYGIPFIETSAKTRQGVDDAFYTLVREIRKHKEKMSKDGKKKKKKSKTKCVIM

KRAS G12C [3] = target: T2, KRAS G12C; assay: KRAS G12C nucleotide exchange assay (SOS1-mediated, HTRF); format: biochemical; design: GST-tagged KRAS G12C (amino acids 2-169); settings: 1 hr pre-incubation
Procedure, shortened: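 GST-tagged KRAS G12C (aa 2-169, 30 nM) pre-incubated 1 h at RT with compound (10-point, 3-fold dilution from 10 μM), then SOS1 (aa 564-1049, 20 nM) and GTP-DY-647P1 (0.15 μM) added. Exchange read by HTRF with anti-GST Tb antibody. IC50 from sigmoidal variable-slope fit.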
Target sequence in this assay (P01116 2-169 isoform P01116-2 G12C): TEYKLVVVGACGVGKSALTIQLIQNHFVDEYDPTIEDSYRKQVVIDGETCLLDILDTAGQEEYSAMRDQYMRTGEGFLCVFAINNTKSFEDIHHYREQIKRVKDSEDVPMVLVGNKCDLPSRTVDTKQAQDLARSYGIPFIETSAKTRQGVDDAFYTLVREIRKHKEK

T1 sequence (P00533 669-1011): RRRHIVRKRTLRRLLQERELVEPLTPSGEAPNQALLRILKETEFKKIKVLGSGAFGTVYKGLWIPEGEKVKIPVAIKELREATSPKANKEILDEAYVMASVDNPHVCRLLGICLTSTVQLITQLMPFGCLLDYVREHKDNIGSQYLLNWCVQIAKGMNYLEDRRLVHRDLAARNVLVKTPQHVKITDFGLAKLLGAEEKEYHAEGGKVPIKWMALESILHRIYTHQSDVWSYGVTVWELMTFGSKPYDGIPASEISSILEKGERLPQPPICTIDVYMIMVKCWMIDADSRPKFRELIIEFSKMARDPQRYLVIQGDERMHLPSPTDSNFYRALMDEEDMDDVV

SMILES | Kd [1] [nM] | EC50 (KRAS G12C [2]) [nM] | IC50 (KRAS G12C [3]) [nM]
C=C(CN(C(=O)NCc1ccc2c(c1)CN(C1CCC(=O)NC1=O)C2=O)c1ccc(C)c(Cl)c1)C(=O)Nc1cc(Nc2ncc(-c3cn(C)c4ccccc34)cn2)c(OC)cc1N(C)CCN(C)C (centres unmarked) [Compound I-42] | > 2500 | – | –
C=C(COc1cc(Cl)cc(NC(=O)NCc2ccc3c(c2)CN(C2CCC(=O)NC2=O)C3=O)c1)C(=O)N[C@@H]1CN(c2nc(Nc3cn(C)nc3OC)c3ncn(C)c3n2)C[C@H]1F (some centres unmarked) [Compound I-45] | 50 to 500 | – | –
C=C(COc1ccc(Cl)cc1NC(=O)NCc1ccc2c(c1)CN(C1CCC(=O)NC1=O)C2=O)C(=O)N[C@@H]1CN(c2nc(Nc3cn(C)nc3OC)c3ncn(C)c3n2)C[C@H]1F (some centres unmarked) [Compound I-47] | < 50 | – | –
C=C(COc1cc(Cl)cc(NC(=O)NCc2ccc3c(c2)CN(C2CCC(=O)NC2=O)C3=O)c1)C(=O)N1C[C@H](COc2nc(Nc3cnn(C)c3)nc3[nH]cc(Cl)c23)[C@@H](OC)C1 (some centres unmarked) [Compound I-54] | > 2500 | – | –
C=C(COc1cc(Cl)cc(NC(=O)NCc2ccc3c(c2)CN(C2CCC(=O)NC2=O)C3=O)c1)C(=O)Nc1cccc(Oc2nc(Nc3ccc(N4CCN(C)CC4)cc3)nc3ccsc23)c1 (centres unmarked) [Compound I-55] | > 2500 | – | –
C=C(COc1cc(Cl)cc(NC(=O)NCc2ccc3c(c2)CN(C2CCC(=O)NC2=O)C3=O)c1)C(=O)Nc1cc(Nc2nccc(-c3cn(C)c4ccccc34)n2)c(OC)cc1N(C)CCN(C)C (centres unmarked) [Compound I-59] | < 50 | – | –
C=C(COc1c(Cl)cccc1NC(=O)NCc1ccc2c(c1)CN(C1CCC(=O)NC1=O)C2=O)C(=O)Nc1cc(Nc2nccc(-c3cn(C)c4ccccc34)n2)c(OC)cc1N(C)CCN(C)C (centres unmarked) [Compound I-60] | 50 to 500 | – | –
C=C(COc1cc(Cl)cc(NC(=O)NCc2ccc3c(c2)CN(C2CCC(=O)NC2=O)C3=O)c1)C(=O)Nc1cccc(-c2cccc3cnc(Nc4ccc(N5CCN(CCO)CC5)c(F)c4F)nc23)c1 (centres unmarked) [Compound I-61] | 500 to 2500 | – | –
C=C(COc1cc(Cl)cc(NC(=O)NCc2ccc3c(c2)CN(C2CCC(=O)NC2=O)C3=O)c1F)C(=O)N1CCN(c2nc(OC[C@@H]3CCCN3C)nc3c2CCN(c2cccc4cccc(Cl)c24)C3)C[C@@H]1CC#N (some centres unmarked) [Compound I-84] | – | > 10000 | > 10000
C=C(COc1cc(NC(=O)NCc2ccc3c(c2F)CN(C2CCC(=O)NC2=O)C3=O)cc(C(F)(F)F)c1)C(=O)N1CCN(c2nc(OC[C@@H]3CCCN3C)nc3c2CCN(c2cccc4cccc(Cl)c24)C3)C[C@@H]1CC#N (some centres unmarked) [Compound I-85] | – | < 250 | < 100
C=C(COc1c(Cl)cccc1NC(=O)NCc1ccc2c(c1)CN(C1CCC(=O)NC1=O)C2=O)C(=O)N1CCN(c2nc(OC[C@@H]3CCCN3C)nc3c2CCN(c2cccc4cccc(Cl)c24)C3)C[C@@H]1CC#N (some centres unmarked) [Compound I-86] | – | 250 to 5000 | < 100
C=C(CN1C(=O)CCC(N2Cc3cc(CNC(=O)Nc4ccc(C)c(Cl)c4)ccc3C2=O)C1=O)C(=O)Nc1cc(Nc2ncc(-c3cn(C)c4ccccc34)cn2)c(OC)cc1N(C)CCN(C)C (centres unmarked) [Compound I-87] | > 2500 | – | –
C=C(COc1cc(C(F)(F)F)c(Cl)cc1NC(=O)NCc1ccc2c(c1)CN(C1CCC(=O)NC1=O)C2=O)C(=O)N1CCN(c2nc(OC[C@@H]3CCCN3C)nc3c2CCN(c2cccc4cccc(Cl)c24)C3)C[C@@H]1CC#N (some centres unmarked) [Compound I-88] | – | < 250 | < 100
C=C(COc1cc(NC(=O)NCc2ccc3c(c2)CN(C2CCC(=O)NC2=O)C3=O)ccc1OC)C(=O)N1CCN(c2nc(OC[C@@H]3CCCN3C)nc3c2CCN(c2cccc4cccc(Cl)c24)C3)C[C@@H]1CC#N (some centres unmarked) [Compound I-89] | – | 250 to 5000 | < 100
C=C(COc1c(CNC(=O)Nc2ccc(C)c(Cl)c2)ccc2c1CN(C1CCC(=O)NC1=O)C2=O)C(=O)N1CCN(c2nc(OC[C@@H]3CCCN3C)nc3c2CCN(c2cccc4cccc(Cl)c24)C3)C[C@@H]1CC#N (some centres unmarked) [Compound I-90] | – | < 250 | < 100
C=C(COc1cc(Cl)cc(NC(=O)NCc2ccc3c(c2F)CN(C2CCC(=O)NC2=O)C3=O)c1)C(=O)N1CCN(c2nc(OC[C@@H]3CCCN3C)nc3c2CCN(c2cccc4cccc(Cl)c24)C3)C[C@@H]1CC#N (some centres unmarked) [Compound I-116] | – | < 250 | < 100
C=C(COC(=O)n1c(CNc2nc(N3CCNCC3)nc3c(Br)cnn23)nc2cc(C)ccc21)C(=O)N1C[C@H](COc2nc(Nc3cnn(C)c3)nc3[nH]cc(Cl)c23)[C@@H](OC)C1 [Compound V-4] | > 2500 | – | –
C=C(COc1cc(-c2ccccn2)ccc1CNc1nc(N[C@H](CC)CO)nc2c1ncn2C(C)C)C(=O)N[C@@H]1CN(c2nc(Nc3cn(C)nc3OC)c3ncn(C)c3n2)C[C@H]1F [II-183] | 50 to 500 | – | –
C=C(COC(=O)N1CCN(c2nc(NCc3nc4cc(C)ccc4[nH]3)n3ncc(Br)c3n2)CC1)C(=O)N1C[C@H](COc2nc(Nc3cnn(C)c3)nc3[nH]cc(Cl)c23)[C@@H](OC)C1 [II-185] | > 2500 | – | –
C=C(COc1cc(-c2ccccn2)ccc1CNc1nc(N[C@H](CC)CO)nc2c1ncn2C(C)C)C(=O)N1CCN(c2nc(OC[C@@H]3CCCN3C)nc3c2CCN(c2cccc4cccc(Cl)c24)C3)C[C@@H]1CC#N [II-186] | – | 250 to 5000 | < 100
C=C(CN1CCN(c2nc(NCc3nc4cc(C)ccc4[nH]3)n3ncc(Br)c3n2)CC1)C(=O)Nc1cc(Nc2nccc(-c3cn(C)c4ccccc34)n2)c(OC)cc1N(C)CCN(C)C [II-188] | < 50 | – | –
C=C(CN1CCN(c2nc(NCc3nc4cc(C)ccc4[nH]3)n3ncc(Br)c3n2)CC1)C(=O)N1CCN(c2nc(OC[C@@H]3CCCN3C)nc3c2CCN(c2cccc4cccc(Cl)c24)C3)C[C@@H]1CC#N [II-190] | – | 250 to 5000 | < 100
C=C(CN1CCN(c2nc(NCc3nc4cc(C)ccc4[nH]3)n3ncc(Br)c3n2)CC1)C(=O)Nc1cccc(-c2cccc3cnc(Nc4ccc(N5CCN(CCO)CC5)c(F)c4F)nc23)c1 [II-191] | > 2500 | – | –
